The text below walks through data of patent US8334403B1, “C-lysine conjugates as pH-controlled, light-activated reagents for double stranded DNA cleavage and associated methods” (Florida State University Research Foundation, Inc., priority 2005, dated 2012).

Read-outs that look alike come from different tables or passages of the source. Marks after values point to notes of the source that are not given here. Some results are limits rather than exact numbers.

For data set [1], the system named is pBR322 plasmid DNA. Put plainly: Plasmid relaxation assay: DNA photocleavage of supercoiled plasmid under UV irradiation. It is filed as biochemical. Particulars: pH 6, 15 μM, 10 min of UV irradiation. As for the experimental part:
General information. ^1H, ^13C and ^19F NMR were collected on a Varian Gemini 300 MHz NMR spectrometer and a Bruker 300 MHz NMR spectrometer. Mass spectrometry data was collected on a Jeol JMS-600H. UV spectra were recorded on a Shimadzu UV-2100. Fluorescence spectra were obtained with SPEX FluoMax spectrofluorimeter using right-angle geometry. pH was adjusted with AB 15 plus pH meter (Accument) after standardization at 25° C. All buffers were prepared and pH-adjusted at room temperature (25° C.). Plasmid DNA Photocleavage. pBR322 plasmid DNA (4,361 b/p; from BioLabs Inc., 1 μg/μL solution in 10 mM Tris-HCl (pH 8.0), and 1 mM EDTA buffer) was diluted to a concentration of 0.01 μg/μL. The solution containing cleavage agent, DNA (30 μM/bp) in 20 mM sodium phosphate buffer was incubated for 1 hour at 30° C. Samples were placed on ice at a distance of 20 cm from 200 W Hg—Xe lamp (Spectra-Physics, Laser & Photonics Oriel Instruments with long pass filter with 324 nm cut-off wavelength). Electrophoretic Analysis. The gel electrophoresis was carried out in 1×TBE buffer at 80 V using Miligel FisherBiotech Horizontal Electrophoresis System. All gels were run on 1% agarose slab gels. Before loading, the DNA samples were mixed with 0.33 volume of tracking dye containing bromophenol blue (0.25%) and glycerol (30%) in water. After staining in ethidium bromide solution (2 μg/ml) for 1 hour, the gel was washed with water and pictures were taken with Polaroid 3000ISO type 667 film. The relative quantities of the supercoiled, nicked, and linear DNA were calculated by integrating the “area” of each spot by the image analyzer software Total/Lab (Nonlinear Dynamics Ltd., UK). The amount of supercoiled DNA was multiplied by factor of 1.4 to account for reduced ethidium bromide intercalation into supercoiled DNA. pH titration by ^1H-NMR. pH* of compound 8 (3 mM) solution in D2O containing 0.05 wt % 3-(trimethylsilyl)propionic-2,2,3,3-d4 acid, sodium salt (TSP-d4) was adjusted with 10 wt % DCI and NaOD in D2O at 25° C. under argon purged condition. Spectrometric determinations of pKa. pH of 10 μM of compound solution in H2O was adjusted with 10, 100 mM HCl (aq) and NaOH (aq) solution under argon purged condition. Excitation wavelength was 330 nm and polymethacrylate fluorimeter cuvettes were used. Absorbance and fluorescence titration with DNA. The concentrations of calf thymus DNA stock solution was determined spectophotometrically using the following molar absorptovity values: 1.32×10^4 M^−1 cm^−1 (per base pair) at 260 nm. All experiments were done in 20 mM sodium phosphate buffer at 25° C. and polymethacrylate fluorimeter cuvettes were used. The same amount of DNA was added to both sample and reference cuvettes during UV/Vis titration. Determination of excited state lifetimes. The concentration of compound solution was 10 μM in 20 mM sodium phosphate buffer. The photoluminescence lifetime measurements were conducted by exciting the samples with the output of a Nd:VO—4 (Spectra-Physics Vanguard, 2 W, 532 nm, 76 MHz, 10 ps) pumped R6G dye laser (Coherent 702-1). The output of the dye laser (600 nm, Rhodamine 6G) was cavity dumped at 1.9 MHz and frequency doubled using a BBO crystal to excite the fluorophore (the excitation wavelength used was 290 nm). Samples were excited with <1 mW power and the emission was collected at right angles onto a Chromex S3 500 is 0.5 m imaging monochromator with a 50 g/mm grating and 0.5 nm resolution. Output of the monochromator is focused into a Hamamatsu C5680 streak camera operating at a 20 ns window for the fluorophore. Intensity analysis was carried out by integrating the spectral profile in time on the streak camera. Lifetime analysis over 6-7 lifetimes of the fluorophore was conducted by binning the photoluminescence intensity collected on the streak camera over a 20 nm spectral window at the centroid value of the emission of the fluorophore. Ethidium bromide displacement. […]

A short description of data set [2]: Fluorometric (emission) determination of pKa. In kind it is physicochemical. Particulars: emission; α-amino group (4, 6), ε-amino group (7). As for the experimental part:
(§1) General information. ^1H, ^13C and ^19F NMR were collected on a Varian Gemini 300 MHz NMR spectrometer and a Bruker 300 MHz NMR spectrometer. Mass spectrometry data was collected on a Jeol JMS-600H. UV spectra were recorded on a Shimadzu UV-2100. Fluorescence spectra were obtained with SPEX FluoMax spectrofluorimeter using right-angle geometry. pH was adjusted with AB 15 plus pH meter (Accument) after standardization at 25° C. All buffers were prepared and pH-adjusted at room temperature (25° C.). Plasmid DNA Photocleavage. pBR322 plasmid DNA (4,361 b/p; from BioLabs Inc., 1 μg/μL solution in 10 mM Tris-HCl (pH 8.0), and 1 mM EDTA buffer) was diluted to a concentration of 0.01 μg/μL. The solution containing cleavage agent, DNA (30 μM/bp) in 20 mM sodium phosphate buffer was incubated for 1 hour at 30° C. Samples were placed on ice at a distance of 20 cm from 200 W Hg—Xe lamp (Spectra-Physics, Laser & Photonics Oriel Instruments with long pass filter with 324 nm cut-off wavelength). Electrophoretic Analysis. The gel electrophoresis was carried out in 1×TBE buffer at 80 V using Miligel FisherBiotech Horizontal Electrophoresis System. All gels were run on 1% agarose slab gels. Before loading, the DNA samples were mixed with 0.33 volume of tracking dye containing bromophenol blue (0.25%) and glycerol (30%) in water. After staining in ethidium bromide solution (2 μg/ml) for 1 hour, the gel was washed with water and pictures were taken with Polaroid 3000ISO type 667 film. The relative quantities of the supercoiled, nicked, and linear DNA were calculated by integrating the “area” of each spot by the image analyzer software Total/Lab (Nonlinear Dynamics Ltd., UK). The amount of supercoiled DNA was multiplied by factor of 1.4 to account for reduced ethidium bromide intercalation into supercoiled DNA. pH titration by ^1H-NMR. pH* of compound 8 (3 mM) solution in D2O containing 0.05 wt % 3-(trimethylsilyl)propionic-2,2,3,3-d4 acid, sodium salt (TSP-d4) was adjusted with 10 wt % DCI and NaOD in D2O at 25° C. under argon purged condition. Spectrometric determinations of pKa. pH of 10 μM of compound solution in H2O was adjusted with 10, 100 mM HCl (aq) and NaOH (aq) solution under argon purged condition. Excitation wavelength was 330 nm and polymethacrylate fluorimeter cuvettes were used. Absorbance and fluorescence titration with DNA. The concentrations of calf thymus DNA stock solution was determined spectophotometrically using the following molar absorptovity values: 1.32×10^4 M^−1 cm^−1 (per base pair) at 260 nm. All experiments were done in 20 mM sodium phosphate buffer at 25° C. and polymethacrylate fluorimeter cuvettes were used. The same amount of DNA was added to both sample and reference cuvettes during UV/Vis titration. Determination of excited state lifetimes. The concentration of compound solution was 10 μM in 20 mM sodium phosphate buffer. The photoluminescence lifetime measurements were conducted by exciting the samples with the output of a Nd:VO—4 (Spectra-Physics Vanguard, 2 W, 532 nm, 76 MHz, 10 ps) pumped R6G dye laser (Coherent 702-1). The output of the dye laser (600 nm, Rhodamine 6G) was cavity dumped at 1.9 MHz and frequency doubled using a BBO crystal to excite the fluorophore (the excitation wavelength used was 290 nm). Samples were excited with <1 mW power and the emission was collected at right angles onto a Chromex S3 500 is 0.5 m imaging monochromator with a 50 g/mm grating and 0.5 nm resolution. […]

A short description of data set [3]: UV-absorption titration determination of pKa. It is filed as physicochemical. The method, then:
as §1

A short description of data set [4]: pH (pD) titration by 1H-NMR in D2O. Particulars: uncorrected. In kind it is physicochemical. The method, then:
General information. ^1H, ^13C and ^19F NMR were collected on a Varian Gemini 300 MHz NMR spectrometer and a Bruker 300 MHz NMR spectrometer. Mass spectrometry data was collected on a Jeol JMS-600H. UV spectra were recorded on a Shimadzu UV-2100. Fluorescence spectra were obtained with SPEX FluoMax spectrofluorimeter using right-angle geometry. pH was adjusted with AB 15 plus pH meter (Accument) after standardization at 25° C. All buffers were prepared and pH-adjusted at room temperature (25° C.). Plasmid DNA Photocleavage. pBR322 plasmid DNA (4,361 b/p; from BioLabs Inc., 1 μg/μL solution in 10 mM Tris-HCl (pH 8.0), and 1 mM EDTA buffer) was diluted to a concentration of 0.01 μg/μL. The solution containing cleavage agent, DNA (30 μM/bp) in 20 mM sodium phosphate buffer was incubated for 1 hour at 30° C. […] The relative quantities of the supercoiled, nicked, and linear DNA were calculated by integrating the “area” of each spot by the image analyzer software Total/Lab (Nonlinear Dynamics Ltd., UK). […] Absorbance and fluorescence titration with DNA. The concentrations of calf thymus DNA stock solution was determined spectophotometrically using the following molar absorptovity values: 1.32×10^4 M^−1 cm^−1 (per base pair) at 260 nm. […]

For data set [5] the following is noted: published literature; cited from earlier work.
The test system of data set [6] is DNA. The settings on record: cited from earlier work.

Turning to `Cl.NCCCCCC(=O)Nc1ccc(C#Cc2c(F)c(F)nc(F)c2F)cc1` [Compound 7, 6-Aminohexanoic acid [4-(2,3,5,6-tetrafluoro-pyridin-4-ylethynyl)-phenyl]-amide Hydrochloride], the ds-cleavage result in data set [1] is given as “do not produce any ds-cleavage”. Moreover, the pKa1 in data set [2] came out at 10.8; in data set [3] (absorption, α-amino group (4, 6), ε-amino group (7)), 9.4. Moreover, in data set [3] (absorption vs fluorescence), the “pKa for the ε-ammonium group lower by absorption than derived from the fluorescence changes” value was over 1 pKa units.

As for `Cl.Cl.NCCCC[C@H](N)C(=O)Nc1ccccc1` [Compound 8, (S)-2,6-Diaminohexanoic acid phenyl-amide dihydrochloride], in data set [4], the “pKa1 (α-amino group)” value came to 7.56 and the “pKa2 (ε-amino group)” value was determined as 10.75.

For the compound `NCCCC[C@H](N)C(=O)O` [Lysine], in data set [5], the pKa1 is 8.95^b and the pKa2 is reported as 10.53^b.

With `COc1cc(CCN)c2c(c1OC)SS[S+]2[O-]` (stereo not shown) [Varacin C], the “extent of single stranded (ss) DNA cleavage” value in data set [6] (pH 5.5, 5 μM antibiotic loading) was 47%; in data set [6] (pH 7), 23%.
